Experimental data published in patent US5876715A, “Antibodies that bind novel carbohydrate ligands (myelorollins) that cause E-selectin dependent cell rolling, and uses thereof” (The Biomembrane Institute, priority 1996, dated 1999).
“Also recorded” adds a separate entry of the source.

System: E-selectin-expressing CHO cells
Assay: Static adhesion of E-selectin-expressing CHO cells to gangliosides coated on polystyrene beads affixed to glass slides
Format: cell-based, Chinese hamster
Settings: static conditions, ganglioside coated on polystyrene beads affixed on glass slides
Procedure: Polystyrene beads (1 μm diameter) were spread and affixed to glass microscope slides as described in Materials & Methods, added with 100 ng of poly-LacNac ganglioside dissolved in isopropanol-hexane-water (50:45:10), allowed to dry for 1 hr, and immersed in PBS containing 2% BSA. The slides were placed in Petri dishes and overlaid with RPMI medium containing E-selectin-expressing CHO cells (1×10^5 /cells mL). After 10 min incubation, slides were washed with PBS and total numbers of cells adhered on beads were counted. Each point represents one experiment. Horizontal lines indicate arithmetic means.
Gangliosides coated on polystyrene beads affixed on glass slides as described above and placed in petri dishes were incubated with E-selectin-expressing CHO cells in 1% FCS-RPMI medium. After 30 min, slides were washed 3 times with PBS, and numbers of adherent cells were counted under a microscope.
Polystyrene latex beads were affixed on glass microscope slides, added with 1 nmol of ganglioside fraction dissolved in isopropanol-hexane-water (50:45:10), allowed to dry for 1 hr, and then immersed in PBS(+) containing 1% bovine serum albumin. The slides were placed in Petri dishes containing permanently E-selectin-expressing CHO cells (1×10^5) in RPMI medium. After 30 min. incubation, slides were washed with PBS and total numbers of cells adhered on the affixed beads were counted. Sdiy^2 is sialyl-Le^x -Le^x (VI^3 NeuAcV^3 FucIII^3 FucnLc6 Cer).
Static adhesion assay using polystyrene latex beads: In order to observe static adhesion with the same matrix used for dynamic adhesion assay, the following procedure was used. Polystyrene latex beads of 1 μm or 4 μm diameter (IDC Spheres™; IDC, Portland, Oreg.), affixed to objective microscope slides, were used as carriers of poly-LacNAc GSLs. 30 μL of the 4 μm diameter bead suspension (containing 2×10^9beads/mL) or 60 μL of 1 μm bead suspension (containing 1×10^11 beads/mL) were placed in Eppendorf tubes and washed with absolute ethanol 3×. Sedimented 4 μm beads were suspended in […] ethanol, and sedimented 1 μm beads were suspended in 2 mL ethanol. 1 μL aliquots of these suspensions were placed on freshly opened microscope slides (Labcraft Superfrost® Plus, Curtin Matheson Scientific, Houston, Tex.). Beads were distributed homogeneously on the glass surface within a circular spot with diameter ≈1 cm. Slides were heated at 150° C. for 50 sec, which caused the beads to adhere strongly to the surface such that they could not be washed off by water stream at various velocities. Gangliosides dissolved in isopropanol-hexane-water at the same molar concentration were applied to latex beads affixed to the slides; namely, 1 μL aliquots containing 50-100 ng ganglioside were placed on the center of the circular spot. The ganglioside thus became affixed to the bead surface. Plates were immersed in 3% BSA in PBS for 1 hr at room temp, and washed 3× with PBS containing Ca^2+ /Mg^2+.
Plates were overlaid with 5×10^5 CHO cells freshly harvested and suspended in RPMI culture medium for 15 min without moving. Washing with RPMI 3× was usually sufficient to eliminate non-adherent cells from beads. However, careful microscopic examination had to be repeated until the cells placed on control polystyrene beads were washed out. Plates were then fixed with 1% glutaraldehyde in PBS and number of cells adhered to the layer of poly-LacNAc ganglioside-coated beads were counted.

| Substance | adhesion of E-selectin-expressing CHO cells (number of cells adhered on beads) | also measured |
| --- | --- | --- |
| VIII^3 NeuAcIII^3 FucnLc8 Cer [Fr. 10-2] | much weaker adhesion than Fr. 13-1 or Fr. 14 |  |
| VIII^3 NeuAcV^3 FucnLc8 Cer [Fr. 10-1] | much weaker adhesion than Fr. 13-1 or Fr. 14 | adhesion of E-selectin-expressing CHO cells (number of cells adhered on beads) (listed as Str. 4): do not show appreciable adhesion |
| VI^3 NeuAcV^3 FucIII^3 FucnLc6 Cer [SLe^x -Le^x, reference compound] | greatest cell adhesion; also recorded: highest adhesion; also recorded: slightly higher adhesion than Fr. 13-1; also recorded: highest binding; also recorded: higher number of E-selectin-expressing cells adhered | adhesion of E-selectin-expressing CHO cells (number of cells adhered on beads) (listed as Str. 3): much higher number of cells bound; also recorded: much higher adhesion than myelorollin |
| VI^3 NeuAcnLc6 Cer [Fr. 7] | no adhesion | adhesion of E-selectin-expressing CHO cells (number of cells adhered on beads) (listed as Str. 1): did not bind |
| X^3 NeuAcVII^3 FucV^3 FucnLc10 Cer [Fr. 13-1] | less than numbers binding to Str. 3 |  |
| X^3 NeuAcVII^3 FucnLc10 Cer [Fr. 12-2] | much weaker adhesion than Fr. 13-1 or Fr. 14 | adhesion of E-selectin-expressing CHO cells (number of cells adhered on beads) (listed as Str. 6): do not show appreciable adhesion |
